# Patent US10076505B2, “Inhalation formulations of Treprostinil” (priority 2003, dated 2018)
# Experiments:
# [1] = test system: large blood vessels of the lower limbs; conditions: patients with severe intermittent claudication; cited from earlier work
# [2] = test system: digital ischemic lesions; assay: Subcutaneous Treprostinil in scleroderma patients with digital ischemic lesions (Example VII); type: in vivo, human; conditions: continuous subcutaneous infusion, 12 weeks, increasing dose
# Procedure: Scleroderma patients having at least one lesion (i.e., small sore or area of tissue gangrene) present on a hand or finger are dosed with increasing amounts of Treprostinil over 12 weeks. The medication is delivered by a small pump that is connected to a catheter placed under the skin. In this manner, increasing dosages of Treprostinil are administered to patients by chronic continuous subcutaneous infusion. Specifically, a 1.0 mg/mL formulation of Treprostinil sodium) (REMODULIN®) is administered subcutaneously using a standard micro-infusion, positive-pressure infusion pump designed for subcutaneous drug delivery (Mini-Med). Patients receive an initial dose of 2.5 ng/kg/min of study drug. […] After that, the dose is raised by 2.50 ng/kg/min each week until not tolerated or once a target dose is reached. Dosing is increased weekly unless not tolerated by the patient. […] One example of a target dose is 15 ng/kg/min. The minimum dose is usually not less than 0.625 ng/kg/min.
# [3] = test system: patients with class III or class IV heart failure; conditions: cited from earlier work
# [4] = test system: digital ischemic lesions; assay: Study of Treprostinil for digital ischemic lesions in patients with systemic sclerosis (Example VIII); type: in vivo, human
# Procedure: This study involved 12 subjects with diffuse or limited scleroderma with at least one DIL that had been present for 2 months or more (Table 1). Subjects who completed the study were treated for 12 weeks with Treprostinil and followed for another 8 weeks after drug discontinuation (FIG. 1). […] Assessments were performed at baseline, weeks 2, 6, 12, 16, and 20. At each visit, the largest (target) lesion and other prominent DIL were measured by recording the largest diameter of the lesions. DIL were counted and photographed. Patient and physician global assessment of ulcers as well as patient assessment of disability from DIL were measured using visual analogue scales (VAS) at each visit.
# [5] = test system: sheep; assay: Intravenous and aerosolized UT-15 dose response during U44069 induced pulmonary hypertension (Example V); type: in vivo; conditions: for left atrial pressure: all three delivery rates
# Description: Sheep were used as the animal model of choice for these experiments for a number of reasons. First is the docile nature of sheep. They will stand quietly in metabolic cages without having to utilize tranquilizing drugs, which have the potential to complicate experimental results. Second, sheep are large enough to allow direct measurement of CO, PPA, PLA, PCV, and PSYS. Sheep are also large enough to allow direct aerosolization of substances into the lung via trachoestomy thereby preventing swallowing of drugs and thus eliminating a possible secondary route of administration of UT-15. Third, sheep can tolerate a great amount of instrumentation with little or no discomfort. Fourth, sheep have been utilized for several years as an animal model of pulmonary arterial hypertension and thus, there is a great amount of historical data with which to compare the results. […] The reasons for using U44069 are that it is a very potent pulmonary vasoconstrictor, its characteristics are very similar to endogenously formed thromboxane A2, and it can be titrated to induce the desired degree of pulmonary vasoconstriction. U44069 was mixed with sterile normal saline immediately prior to being used and was protected from light by wrapping the solution with aluminum foil. The concentration of U44069 was adjusted such that a minimal flow rate of 0.8 ml per min was being infused into the sheep. This was done because more concentrated U44069 would have to be infused at very low rates and often causes “pulses” of U44069 due to the infusion characteristics of roller pumps. The U44069 pulses cause vasoconstriction “spikes” and thus would create induce a non-steady-state. Six yearling sheep (3 males, 3 females; 21-37 kg) were fasted 18-24 hours and initially anesthetized with a short acting barbiturate (thiopental) to allow intubation of the sheep. Halothane gas anesthesia (1.5-2.5%) was then used for the surgical procedures. Via a left thoracotomy, a Transonic blood flow probe was placed around the main pulmonary artery, silastic catheters placed in the main pulmonary artery and left atrium. After approximately 7 days the sheep were reanesthetized and the left carotid artery cannulated, a Cordis Introducer Sheath inserted in the left jugular vein, and a tracheotomy made. The sheep were allowed to recover for another 3-5 days prior to experimentation. These sheep were used to allow measurement of pulmonary arterial pressure (PPA), left atrial pressure (PLA), central venous pressure (PCV), systemic arterial pressure (PSYS), heart rate (HR), and cardiac output (CO) after baseline measurements were made for a minimum of 30 minutes. Two separate experiments were conducted to determine the dose response effects of intravenously infused UT-15 and aerosolized UT-15 during U44069 induced pulmonary hypertension. After a 30 minute baseline was established, U44069 was infused intravenously at a rate of 1 ng per kg per min. For the intravenous administration of UT-15 and after allowing the sheep to achieve a steady-state for 30-60 minutes, a dose-response to intravenous UT-15 was similar to that set forth in Example IV. For the aerosolized administration of UT-15 and after allowing the sheep to achieve a steady-state for 30-60 minutes, a dose-response to intravenous UT-15 was similar to that set forth in Example IV. In each experimental protocol, UT-15 was administered to three sheep for 30 minutes and to the other three sheep for 60 minutes.
# [6] = during U44069 infusion, aerosol
# [7] = during U44069 infusion, aerosolized
# [8] = during U44069 infusion, intravascular
# [9] = during U44069 infusion, intravenous
smiles,measurement,setting,value
"CCCCC[C@H](O)CC[C@@H]1[C@H]2Cc3cccc(OCC(=O)O)c3C[C@H]2C[C@H]1O [UT-15, 9-deoxy-2′,9-alpha-methano-3-oxa-4,5,6-trinor-3,7-(1′,3′-interphenylene)-13,14-dihydro-prostaglandin F1]",blood flow in large blood vessels of the lower limbs,[1],increase in blood flow
same,lesions present before treatment,[2],"reduction in the number, size and severity"
same,new lesions associated with scleroderma,[2],fewer new lesions
same,vasodilator effects,[3],vasodilator effects
same,"physician global assessment of DIL severity, average improvement",[4]; after 12 weeks of therapy,60%
same,patients who developed new ulcers during the 8-week follow-up period after drug discontinuation,[4]; after drug discontinuation,two of three
same,new ulcers while receiving continuous therapy,[4]; any patients,No new ulcers
same,"subjective measures of severity of DIL (patient and physician global assessment, DIL disability VAS)","[4]; by week 6, all five subjects",marked improvements
same,"DIL disability VAS score, average improvement",[4]; by week 12,77%
same,"patient global assessment, average improvement",[4]; by week 12,89%
same,average decrease in the size of baseline DIL,"[4]; continuous sc infusion, 12 weeks",65%
same,target lesions,"[4]; four subjects who completed 12 weeks of active therapy, sc infusion up to 15 ng/kg/min",improved in all patients
same,subjects unable to complete the study due to intolerable injection site pain,[4]; of 12 subjects,five
same,subjects with complete resolution of their target lesions,[4]; of the four subjects who completed 12 weeks,three
same,cardiac output,[5]; [6],no effect
same,time at which UT-15 began to attenuate the increase in PVR,[5]; [6],4 to 5 min
same,left atrial pressure,[5]; [6],increased above baseline
same,heart rate,[5]; [7],no effect
same,off response (PVR),[5]; [7],43 min
same,systemic arterial pressure,[5]; [7],no statistical differences
same,PPA,"[5]; during U44069 infusion, aerosolized, 500 and 1000 ng per kg per min",back to normal values
same,PVR relative to baseline PVR,"[5]; during U44069 infusion, aerosolized, any of the three delivery rates",no significant difference
same,PPA relative to U44069 value,[5]; [8],decrease significantly
same,pulmonary vascular driving pressure (PPA-PLA),[5]; [8],unchanged
same,off response (PVR),[5]; [9],12 min
same,systemic arterial pressure,[5]; [9],no statistical differences
same,time at which UT-15 began to attenuate the increase in PVR,[5]; [9],4 to 5 min
same,central venous pressure,"[5]; during U44069 infusion, intravenous, 500 and 1000 ng per kg per min",different from the U44069 values
same,heart rate,"[5]; during U44069 infusion, intravenous, 500 and 1000 ng per kg per min different from U44069 values",increase above the values during U44069 conditions
same,cardiac output,"[5]; during U44069 infusion, intravenous, significant at 500 and 100 ng per kg per min",dose-response increase
same,left atrial pressure,"[5]; during U44069 infusion, intravenously infused",significant decrease from the U44069 value
same,U44069-induced increase in PVR,"[5]; intravenously infused, 500 and 1000 ng per kg per min",significantly attenuated
